Read-outs that look alike come from different tables or passages of the source.

Results on eleven compounds are retold here after patent US9221781B2, “Synthesis of polyhydroxy chromenone compounds and their anti-tumor effects” (BEIJING SHENOGEN PHARMA GROUP LTD., priority 2012, dated 2015).

One assay concerns Molt-4 cells. Put plainly: Inhibition of growth of acute lymphoblastic leukemia Molt-4 cells by MTT method. The conditions noted are these: 72 hours; for inhibition at 1 µM: Homo sapiens, 10^−6M, read-out: The inhibition percentage of cell proliferation by the compounds with a concentration of 10^−6M, Molt-4 cells. Format: cell-based. The protocol: B: Inhibition of Growth of Acute Lymphoblastic Leukemia Molt-4 Cells by the Compounds Detected by MTT Method
The acute lymphoblastic leukemia Molt-4 cells from ATCC were maintained in RPMI-1640 and 10% fetal calf serum at 37° C. in a 5% CO2 atmosphere. The cells were subseeded in a 96-well culture plate at a concentration of 6×10^3 cells/well and maintained RPMI-1640 and 10% fetal calf serum at 37° C. 5%CO2 atmosphere. Molt-4 cells were treated with a test compound dissolved in DMSO at the concentration of 0, 10^−4M, 10^−5M, 10^−6M, 10^−7M, 10^−8M for 72 hours. OD value was tested by MTT method, and the inhibition ratio was calculated.
A general note: Tetrazolium assays rely on reduction of a dye to a coloured formazan, in cell work by metabolically active cells.

For a further assay, the system named is Daudi cells. The experiment in a line: Inhibition of human B lymphoma Daudi cells by CellTiter-Glo Luminescent Assay in vitro. It is filed as cell-based. The conditions noted are these: 72 hours, read-out: Inhibition of viability of cells in vitro IC50, Daudi cells. The protocol: A: Inhibition of Human B Lymphoma Daudi Cells by CellTiter-Glo® Luminescent Assay In Vitro
The Human B Lymphoma Daudi cells from ATCC were maintained in IMDM and 10% fetal calf serum at 37° C. in a 5% CO2 atmosphere. The cells were subseeded in a 96-well culture plate at a concentration of 6×10^3 cells/well. Human B Lymphoma Daudi cells were treated with a test compound dissolved in DMSO at the concentration of 0, 0.3 μM, 0.5 μM, 1 μM, 2 μM, 3 μM, 10 μM, 20 μM, 30 μM, 50 μM and 100 μM for 72 hours. Treated cells were examined by CeliTiter-Glo® Luminescent Cell Viability Assay Kit (Promega), and luminescence were recorded with Envision.
A general note: Cellular ATP, detected with luciferase, serves as a proxy for viable cell number.

In another assay the test system is HL-60 cells. The experiment in a line: Inhibition of growth of acute myeloblastic leukemia HL-60 cells by MTT method. It is filed as cell-based, human. The conditions noted are these: 72 hours; for inhibition at 1 µM: Homo sapiens, 10^−6M, read-out: The inhibition percentage of cell proliferation by the compounds with a concentration of 10^−6M, HL-60 cells. On the procedure: A: Inhibition of Growth of Acute Myeloblastic Leukemia HL-60 Cells by the Compounds Detected by MTT Method
The acute myeloblastic leukemia HL-60 cells from ATCC were maintained in IMDM and 10% fetal calf serum at 37° C. in a 5% CO2 atmosphere. The cells were subseeded in a 96-well culture plate at a concentration of 6×10^3 cells/well. HL-60 cells were treated with a test compound dissolved in DMSO at the concentration of 0, 10^−4M, 10^−5M, 10^−6M, 10^−7M, 10^−8M for 72 hours. OD value was tested by MTT method, and the inhibition ratio was calculated.

A further assay concerns K562 cells. Put plainly: Viability of chronic leukemia cells K562 by CellTiter-Glo Luminescent Assay in vitro. Format: cell-based, human. The conditions noted are these: 72 hours, read-out: Inhibition of viability of cells in vitro IC50, K562 cells. On the procedure: A: Detection of Viability of Chronic Leukemia Cells K562 by CellTiter-Glo® Luminescent Assay In Vitro
The chronic leukemia cells K562 from ATCC were maintained in IMDM and 10% fetal calf serum at 37° C. in a 5% CO2 atmosphere. The cells were subseeded in a 96-well culture plate at a cencentration of 6×10^3 cells/well.K562 cells were treated with a test compound dissolved in DMSO at the concentration of 0, 0.3 μM, 0.5 μM, 1 μM, 2 μM, 3 μM, 5 μM, 10 μM, 20 μM, 30 μM, 50 μM and 100 μM for 72 hours. Treated cells were examined by CellTiter-Glo® Luminescent Cell Viability Assay Kit (Promega), and luminescence were recorded with Envision.

A further assay concerns BEL-7402 cells. The experiment in a line: Inhibition of liver cancer cell BEL-7402 in vitro by SRB. It is filed as cell-based. Conditions: Homo sapiens, 10^−6M, 72 hours, read-out: The inhibition percentage of cell proliferation by the compounds with a concentration of 10^−6M, BEL-7402 cells. On the procedure: A: Inhibition of Liver Cancer Cell BEL-7402 In Vitro by the Compounds Detected by SRB
The liver cancer BEL-7402 cells from ATCC were maintained in DMDM, 10% NCS and 50 μg/ml KANA at 37° C. in a 5% CO2 atmosphere, and were subseeded in a 96-well culture plate at a concentration of 6×10^3 cells/well. BEL-7402 cells were treated with a test compound dissolved in DMSO at the concentration of 0, 10^−4M, 10^−5M, 10^−6M, 10^−7M, 10^−8M for 72 hours. OD value was tested by SRB method, and the inhibition percentage was calculated.

In a further assay the test system is MDA-MB-231 cells. Put plainly: CellTiter-Glo Luminescent Cell Viability Assay on ER-negative breast cancer MDA-MB-231 cells in vitro. It is filed as cell-based. The conditions noted are these: Homo sapiens, 72 hours, read-out: Inhibition of viability of breast cancer cells IC50, MDA-MB-231 cells. On the procedure: A: CellTiter-Glo® Luminescent Cell Viability Assay on ER-Negative Breast Cancer MDA-MB-231 In Vitro:
MDA-MB-231 cells were maintained at 37° C., in a 5% CO2 atmosphere in DMEM and 10% fetal calf serum. The cells were placed at a density of 6×10^3 cells per well in a 96-well plate. MDA-MB-231 cells were treated with a test compound dissolved in DMSO at the concentration of 0, 0.3 μM, 0.5 μM, 1 μM, 2 μM, 3 μM, 5 μM, 10 μM, 20 μM, 30 μM, 50 μM and 100 μM for 72 hours. Treated cells were examined under CellTiter-Glo® Luminescent Cell Viability Assay Kit (Promega), and luminescence were recorded with Envision.

The subject of another assay is MCF7 cells. Put plainly: CellTiter-Glo Luminescent Cell Viability Assay on ER-positive breast cancer MCF-7 cells in vitro. Format: cell-based. The conditions noted are these: Homo sapiens, 72 hours, read-out: Inhibition of viability of breast cancer cells IC50, MCF7 cells. The protocol:
B: CellTiter-Glo® Luminescent Cell Viability Assay on ER-Positive Breast Cancer MCF-7 Cells In Vitro:
MCF7 cells from ATCC were maintained in an Dulbecco's modified Eagle medium (DMEM), and 10% fetal calf serum at 37 in a 5% CO2 atmosphere. Cells were placed at a density of 6×10^3 cells per well in a 96-well plate. MCF 7 cells were treated with a test compound dissolved in DMSO at the concentration of 0, 0.3 μM, 0.5 μM, 1 μM, 2 μM, 3 μM, 5 μM, 10 μM, 20 μM, 30 μM, 50 μM and 100 μM for 72 hours. Treated cells were examined through CellTiter-Glo® Luminescent Cell Viability Assay Kit (Promega), and luminescence were recorded with Envision.

A word on the IC50: it is the midpoint of a concentration-inhibition curve. Regarding “2-(4-fluorophenyl)-3-methoxy-5,7-dihydroxy-8-(3-methyl-2-buten-1-yl)-4H-chromen-4-one [Compound 11]”, in the assay with Molt-4 cells, the “The inhibition percentage of cell proliferation by the compounds with a concentration of 10^−6M, Molt-4 cells” value is “NA (NA means no activity, and inhibition percentage by the compound with a concentration of 10^−6M was below 10%.)”. The IC50 in the assay on Daudi cells and with K562 cells was over 100 µM throughout. In addition, in the assay with HL-60 cells, the “The inhibition percentage of cell proliferation by the compounds with a concentration of 10^−6M, HL-60 cells” value is “NA (NA means no activity, and inhibition percentage by the compound with a concentration of 10^−6M was below 10%.)”.

As for `COc1cccc2c1C(=O)c1c(O)c3c(c(O)c1C2=O)C[C@@](O)(C(=O)CO)C[C@@H]3O[C@H]1C[C@H](N)[C@H](O)[C@H](C)O1` [Doxorubicin, reference compound], the inhibition at 1 µM with Molt-4 cells was 90.1%; in the assay on BEL-7402 cells, 55.2%; with HL-60 cells, 79%.

Take `COc1c(-c2ccc(F)c(F)c2)oc2c(CC=C(C)C)c(O)cc(O)c2c1=O` [Compound 10, 2-(3,4-difluorophenyl)-3-methoxy-5,7-dihydroxy-8-(3-methyl-2-buten-1-yl)-4H-chromen-4-one]: the half-inhibitory concentration (IC50) is over 100 µM with MDA-MB-231 cells, 21.8 µM in the assay with Daudi cells (Homo sapiens), 31.5 µM with MCF7 cells and over 100 µM with K562 cells (Homo sapiens). In the assay on BEL-7402 cells, the inhibition at 1 µM is 17.4%.

Take `CC(C)=CCc1c(O)cc(O)c2c(=O)c(O)c(-c3ccc(OC(F)(F)F)cc3)oc12` [Compound 5, 2-(4-trifluoromethoxyphenyl)-3,5,7-trihydroxy-8-(3-methyl-2-buten-1-yl)-4H-chromen-4-one]: the IC50 with MDA-MB-231 cells turned out to be 4.48 µM; in the assay with Daudi cells (Homo sapiens) it was 1.49 µM; in the assay with MCF7 cells it was 6.85 µM; in the assay with K562 cells (Homo sapiens) it was 1.48 µM. For the same compound, the inhibition at 1 µM worked out at 69.4% in the assay with Molt-4 cells, 15.6% in the assay on BEL-7402 cells and 59.8% with HL-60 cells.

Regarding `CC(C)=CCc1c(O)cc(O)c2c(=O)c(O)c(-c3ccc(Cl)cc3)oc12` [Compound 4, 2-(4-chlorophenyl)-3,5,7-trihydroxy-8-(3-methyl-2-buten-1-yl)-4H-chromen-4-one], the IC50 in the assay with MDA-MB-231 cells was 4.33 µM; in the assay with Daudi cells (Homo sapiens), 2.64 µM; with MCF7 cells, 16 µM; in the assay with K562 cells (Homo sapiens) it was 0.974 µM. The inhibition at 1 µM worked out at 14.7% with Molt-4 cells, 46.4% with BEL-7402 cells and 0.974% in the assay on HL-60 cells.

For the compound `CC(C)=CCc1c(O)cc(O)c2c(=O)c(O)c(-c3ccc(Cl)c(F)c3)oc12` [Compound 3, 2-(3-fluoro-4-chlorophenyl)-3,5,7-trihydroxy-8-(3-methyl-2-buten-1-yl)-4H-chromen-4-one], the IC50 with MDA-MB-231 cells was found to be 2.87 µM; in the assay with Daudi cells (Homo sapiens) it was 2.91 µM; in the assay on MCF7 cells it was 8.6 µM; with K562 cells (Homo sapiens), 1.85 µM. The inhibition at 1 µM worked out at 14.4% with Molt-4 cells, 28.6% in the assay with BEL-7402 cells and 28.5% in the assay on HL-60 cells.

With `CC(C)=CCc1c(O)cc(O)c2c(=O)c(O)c(-c3ccc(F)cc3)oc12` [Compound 2, 2-(4-fluorophenyl)-3,5,7-trihydroxy-8-(3-methyl-2-buten-1-yl)-4H-chromen-4-one], the half-inhibitory concentration (IC50) in the assay on MDA-MB-231 cells is over 100 µM; in the assay on Daudi cells (Homo sapiens), 9.23 µM; with MCF7 cells, 3.17 µM; in the assay on K562 cells (Homo sapiens), 6.14 µM. For the same compound, the inhibition at 1 µM with Molt-4 cells was under 10%; in the assay on BEL-7402 cells, 21.8%.

For `CC(C)=CCc1c(O)cc(O)c2c(=O)c(O)c(-c3ccc(Cl)c(C(F)(F)F)c3)oc12` [Compound 7, 2-(3-trifluoromethyl-4-chlorophenyl)-3,5,7-trihydroxy-8-(3-methyl-2-buten-1-yl)-4H-chromen-4-one], the IC50 with MDA-MB-231 cells is 9.3 µM; in the assay on Daudi cells (Homo sapiens) it was 4.07 µM; in the assay with MCF7 cells, 7.54 µM; with K562 cells (Homo sapiens) it was 6.14 µM. Besides, the values for the inhibition at 1 µM in the assay with Molt-4 cells, in the assay with BEL-7402 cells and in the assay on HL-60 cells were 57%, 19.8% and under 10%, respectively.

On to `Nc1ccn([C@@H]2O[C@H](CO)[C@@H](O)[C@@H]2O)c(=O)n1` [cytarabinen, reference compound], for which the IC50 with Daudi cells amounted to 10 µM.

Turning to `CC(C)=CCc1c(O)cc(O)c2c(=O)c(O)c(-c3ccc(Cl)c(Cl)c3)oc12` [Compound 6, 2-(3,4-dichlorophenyl)-3,5,7-trihydroxy-8-(3-methyl-2-buten-1-yl)-4H-chromen-4-one], the IC50 is 1.88 µM with MDA-MB-231 cells, 1.98 µM with Daudi cells (Homo sapiens), 6.85 µM with MCF7 cells and 0.935 µM with K562 cells (Homo sapiens). In addition, the inhibition at 1 µM worked out at 67.4% with Molt-4 cells, 14.9% in the assay on BEL-7402 cells and 61.9% in the assay on HL-60 cells.

Turning to `COc1c(-c2ccc(C(F)(F)F)cc2)oc2c(CC=C(C)C)c(O)cc(O)c2c1=O` [Compound 9, 2-(4-trifluoromethylphenyl)-3-methoxy-5,7-dihydroxy-8-(3-methyl-2-buten-1-yl)-4H-chromen-4-one], the IC50 in the assay on MDA-MB-231 cells and with MCF7 cells was over 100 µM in each case. Besides, the inhibition at 1 µM was under 10% in the assay on Molt-4 cells, 11.7% in the assay on BEL-7402 cells and under 10% in the assay on HL-60 cells.
